Data: patent US20220071941A1, “THERAPIES FOR SQUAMOUS CELL CARCINOMAS” (Kura Oncology, Inc., priority 2018, published 2022)

System: squamous head and neck cancer with HRAS mutations
Assay: Phase II study of tipifarnib in subjects with HRAS mutant tumors (HNSCC cohort)
Format: in vivo, human
Method: A Phase II study was performed that investigated the antitumor activity, in terms of objective response rate, of tipifarnib in subjects with locally advanced, unresectable or metastatic, relapsed and/or refractory tumors that carry HRAS mutations and for whom there is no curative therapy available. Subjects were men and women over 18 years of age.
Inclusion criteria of the study were as follows: histologically or cytologically confirmed diagnosis of thyroid cancer (cohort 1) or squamous head and neck cancer (cohort 2) for which there is no curative therapy available; tumor that carries a missense HRAS mutation; subject consents to provide at least 10 unstained tumor slides for retrospective testing of HRAS gene tumor status; subject has measurable disease according to RECIST v1.1 and has relapsed or is refractory to prior therapy; at least 2 weeks since the last systemic therapy or radiotherapy regimen prior to enrolment; ECOG PS 0 or 1; acceptable liver function; acceptable renal function; and acceptable hematologic status.
Exclusion criteria of the study were as follows: prior treatment with an FTase inhibitor; history of relevant coronary heart disease or myocardial infarction within last 3 years, NYHA Grade III or greater congestive heart failure, cerebro-vascular attack within the prior year, or serious cardiac arrhythmia requiring medication except atrial fibrillation; known uncontrolled brain, leptomeningeal or epidural metastases (unless treated and well controlled for at least 4 weeks prior to Cycle 1 Day 1); controlled brain metastases that require continuous high dose corticosteroid use within 4 weeks of Day 1; non-tolerable>Grade 2 neuropathy or evidence of unstable neurological symptoms within 4 weeks first dose; major surgery, other than diagnostic surgery, within 4 weeks prior to first dose, without complete recovery; active, uncontrolled bacterial, viral, or fungal infections, requiring systemic therapy; or known infection with HIV, or an active infection with hepatitis B or hepatitis C.
The study comprised 36 participants and subjects were enrolled into two nonrandomized cohorts as follows: Cohort 1 was comprised of patients with malignant thyroid tumors with HRAS mutations; Cohort 2 was comprised of patients with squamous head and neck cancer with HRAS mutations. Patients received tipifarnib at a starting dose of 600-900 mg orally twice daily on days 1-7 and 15-21 of 28-day cycles.
The primary outcome measurement of the study was objective response rate. Additionally, progression-free survival, duration of response, and the number of subjects with adverse events and serious adverse events were also recorded as secondary outcome measures. Adverse events and serious adverse events were graded according to the NCI-CTCAE (Version 4.03).
Upon meeting the primary objective (objective response rate), the study was amended to continue enrollment of HNSCC patients (Cohort 2) in addition to patients with other SCCs (Cohort 3). These patients had tumors carrying high HRASm variant allele frequency (VAF >35% or if baseline serum albumin is >3.5 g/dL)

[1] = of the 15 HNSCC patients meeting HRASm VAF criteria

Compound: Cn1cncc1[C@@](N)(c1ccc(Cl)cc1)c1ccc2c(c1)c(-c1cccc(Cl)c1)cc(=O)n2C [tipifarnib]
- overall response rate (15 HNSCC patients meeting HRASm VAF criteria, starting dose 600-900 mg orally twice daily on days 1-7 and 15-21 of 28-day cycles): 53%
- median progression-free survival (PFS), patients experiencing SD (95% CI 1.6 to 5.4 months): 4.5 months
- median progression-free survival (PFS), patients experiencing a PR (95% CI 5.3 to 19.5 months): 19 months
- overall median progression-free survival (PFS) (N=15, 95% CI 4.5 to 19.5 months): 5.4 months
- patients with at least 1 treatment-emergent adverse event (TEAE) (graded according to NCI-CTCAE Version 4.03): All patients
- most frequently observed drug-related Grade >3 TEAEs (occurring in ≥10% patients): blood and lymphatic system disorders, gastrointestinal disorders, and renal disorders
- confirmed partial responses (PR), number of patients [1]: 8
- stable disease (SD), number of patients [1]: 5
